Source: US8044053B2, “Sulfonamide substituted pyrazoline compounds, their preparation and use as CB1 modulators” (Laboratories del Dr. Esteve, S.A., priority 2006, dated 2011)

Assays:
CB1-receptor [1] = molecular target: CB1-receptor (UniProt P20272); test: In-vitro determination of affinity (binding) to CB1-receptors, radioligand [3H]-CP55940; parameters: % inh; 10^−7 M; compound at 10^−7 M; species or system human or rat; details: compound at 10^−7 M
Description: (§1) I. In-Vitro Determination of Affinity to CB1/CB2-Receptors
(§2) The in-vitro determination of the affinity of the inventive substituted pyrazoline compounds to CB1/CB2-Rezeptors is carried out as described in the publication of Ruth A. Ross, Heather C. Brockie et al., “Agonist-inverse agonist characterisation at CB1 and CB2 cannabinoid receptors of L-759633, L759656 and AM630”, British Journal of Pharmacology, 126, 665-672, (1999), whereby the transfected human CB1 and CB2 receptors of Receptor Biology, Inc. are used. The radioligand used for both receptors is [^3H]-CP55940. The respective parts of the description is hereby incorporated by reference and forms part of the present disclosure.
(§3) Rat Cerebellum CB1 Binding
(§4) Binding affinity to CB1 receptor was evaluated according to a modification of the method described by Govaerts et al., Eur J Pharmac Sci 23, 233-243 (2004). The respective parts of the description is hereby incorporated by reference and forms part of the present disclosure.
(§5) Briefly, cerebellum from male wistar rats (250-300 g) were carefully dissected on ice and homogenates were prepared with Potter-Helveheim in a cold 50 mM Tris-HCl solution containing 5 mM MgCl2, 1 mM EDTA and 0.25 M sucrose, pH 7.4. The suspension was centrifuged at 1,000×g for 5 minutes. The supernatants were collected and centrifuged 50,000×g for 15 minutes. The resulting pellets were then resuspended in Tris-HCl buffer without sucrose, homogenised and incubated for 15 min at 37° C. in an orbital shaker bath and centrifuged again at 50,000×g for 15 min. Pellets were weighted, resuspended in Tris-HCl buffer without sucrose, homogenised with Ultraturrax at 13,500 rpm for 3×5 seconds and alicuoted in 0.9 ml volumes in Eppendorf tubes. Alicuotes were centrifuged at 20,800×g for 5 minutes, supernatants discarded and pellets were frozen at −80° C. until use. Total protein concentration was determined using the Bio-Rad Lowry method based kit. Competitive binding experiments were performed in presence of 1 nM [^3H]-CP 55,940 in siliconised glass tubes containing 100 μg protein/tube resuspended in 1 ml final volume of 50 mM Tris-HCl, 5 mM MgCl2, 1 mM EDTA, 0.5% (w/v) bovine serum albumin, pH 7.4. Compounds were present at various concentrations and the non specific binding was determined in the presence of 10 μM HU-210. After 1 hour incubation at 30° C., the suspension was rapidly filtered through 0.5% PEI pre-treated GF/B fiber filters on a 96-well harvester and washed 3 times with 3 ml ice-cold binding buffer without bovine serum albumin. Radioactivity on filters was measured with Wallac Winspectral 1414 counter by liquid scintillation in 6 ml Ecoscint H (National Diagnostics, U.K.). Assays were made in triplicates.
(§6) Binding data were analysed by non-linear regression with the software GraphPad Prism Version 3.03.
(§7) The binding of the pyrazoline compounds of general formulae I, Ia and Ib to CB1-receptors was determined according to the method described in the section Pharmacological Methods, Part I.

CB1-receptor [2] = molecular target: CB1-receptor (UniProt P20272); test: as above; parameters: IC50; Ki; species or system human or rat; details: Pharmacological Methods Part I
Description: as §1, §2, §3, §4, §5, §6, §7

% inh. 10^−7 M (CB1-receptor [1]) [%]	IC50 (CB1-receptor [2]) [nM]	Ki (CB1-receptor [2]) [nM]	SMILES
27.2			O=S(=O)(NCC1=NN(c2ccc(Cl)cc2Cl)C(c2ccc(Cl)cc2)C1)c1csc2ccccc12 (stereo not shown) [Example 37, Benzo[b]thiophene-3-sulfonic acid [5-(4-chloro-phenyl)-1-(2,4-dichloro-phenyl)-4,5-dihydro-1H-pyrazol-3-ylmethyl]-amide]
80.6	263		CCCS(=O)(=O)NCC1=NN(c2ccc(Cl)cc2Cl)C(c2ccc(Cl)cc2)C1 (stereo not shown) [Example 21, Propane-1-sulfonic acid [5-(4-chloro-phenyl)-1-(2,4-dichloro-phenyl)-4,5-dihydro-1H-pyrazol-3-ylmethyl]-amide]
26.5			COc1cc(C)ccc1S(=O)(=O)NCC1=NN(c2ccc(Cl)cc2Cl)C(c2ccc(Cl)cc2)C1 (stereo not shown) [Example 36, N-[5-(4-Chloro-phenyl)-1-(2,4-dichloro-phenyl)-4,5-dihydro-1H-pyrazol-3-ylmethyl]-2-methoxy-4-methyl-benzenesulfonamide]
54.1	15	7.3	Cc1ccc(C)c(S(=O)(=O)NCC2=NN(c3ccc(Cl)cc3Cl)C(c3ccc(Cl)cc3)C2)c1 (stereo not shown) [Example 44, N-[5-(4-Chloro-phenyl)-1-(2,4-dichloro-phenyl)-4,5-dihydro-1H-pyrazol-3-ylmethyl]-2,5-dimethyl-benzenesulfonamide]
54.3	67.7	30.6	O=S(=O)(NCC1=NN(c2ccc(Cl)cc2Cl)C(c2ccc(Cl)cc2)C1)c1ccsc1 (stereo not shown) [Example 9, Thiophene-3-sulfonic acid [5-(4-chloro-phenyl)-1-(2,4-dichloro-phenyl)-4,5-dihydro-1H-pyrazol-3-ylmethyl]-amide]
76.6	458		CCS(=O)(=O)NCC1=NN(c2ccc(Cl)cc2Cl)C(c2ccc(Cl)cc2)C1 (stereo not shown) [Example 14, Ethanesulfonic acid [5-(4-chloro-phenyl)-1-(2,4-dichloro-phenyl)-4,5-dihydro-1H-pyrazol-3-ylmethyl]-amide]
15.9			O=S(=O)(CC1CCCCC1)NCC1=NN(c2ccc(Cl)cc2Cl)C(c2ccc(Cl)cc2)C1 (stereo not shown) [Example 31, N-[5-(4-Chloro-phenyl)-1-(2,4-dichloro-phenyl)-4,5-dihydro-1H-pyrazol-3-ylmethyl]-C-cyclohexyl-methanesulfonamide]
26.7			CCc1ccc(S(=O)(=O)NCC2=NN(c3ccc(Cl)cc3Cl)C(c3ccc(Cl)cc3)C2)cc1 (stereo not shown) [Example 43, N-[5-(4-Chloro-phenyl)-1-(2,4-dichloro-phenyl)-4,5-dihydro-1H-pyrazol-3-ylmethyl]-4-ethyl-benzenesulfonamide]
88.0			O=S(=O)(NCC1=NN(c2ccc(Cl)cc2Cl)C(c2ccc(Cl)cc2)C1)c1ccc(OC(F)(F)F)cc1 (stereo not shown) [Example 16, N-[5-(4-Chloro-phenyl)-1-(2,4-dichloro-phenyl)-4,5-dihydro-1H-pyrazol-3-ylmethyl]-4-trifluoromethoxy-benzenesulfonamide]
8.2			CC(=O)Nc1ccc(S(=O)(=O)NCC2=NN(c3ccc(Cl)cc3Cl)C(c3ccc(Cl)cc3)C2)cc1Cl (stereo not shown) [Example 41, N-(2-Chloro-4-{[5-(4-chloro-phenyl)-1-(2,4-dichloro-phenyl)-4,5-dihydro-1H-pyrazol-3-ylmethyl]-sulfamoyl}-phenyl)-acetamide]
8.5			COC(=O)CCc1ccc(S(=O)(=O)NCC2=NN(c3ccc(Cl)cc3Cl)C(c3ccc(Cl)cc3)C2)cc1 (stereo not shown) [Example 35, 3-(4-{[5-(4-Chloro-phenyl)-1-(2,4-dichloro-phenyl)-4,5-dihydro-1H-pyrazol-3-ylmethyl]-sulfamoyl}-phenyl)-propionic acid methyl ester]
	11	5.1	Cc1ccc(F)cc1S(=O)(=O)NCC1=NN(c2ccc(Cl)cc2Cl)[C@@H](c2ccc(Cl)cc2)[C@H]1C [Example 74, (4R,5R)-N-[5-(4-Chloro-phenyl)-1-(2,4-dichloro-phenyl)-4-methyl-4,5-dihydro-1H-pyrazol-3-ylmethyl]-5-fluoro-2-methyl-benzenesulfonamide]
	52.7	23.5	COc1ccc(C2CC(CNS(=O)(=O)c3cccc(OC)c3)=NN2c2ccc(Cl)cc2Cl)cc1 (stereo not shown) [Example 221, N-[1-(2,4-Dichloro-phenyl)-5-(4-methoxy-phenyl)-4,5-dihydro-1H-pyrazol-3-ylmethyl]-3-methoxy-benzenesulfonamide]
	12.1	5.3	CCOc1ccc(C2CC(CNS(=O)(=O)c3cc(C)ccc3C)=NN2c2ccc(Cl)cc2Cl)cc1 (stereo not shown) [Example 103, N-[1-(2,4-Dichloro-phenyl)-5-(4-ethoxy-phenyl)-4,5-dihydro-1H-pyrazol-3-ylmethyl]-2,5-dimethyl-benzenesulfonamide]
	42.6	17.9	CCOc1ccc(C2CC(CNS(=O)(=O)c3cc(F)ccc3F)=NN2c2ccc(Cl)cc2Cl)cc1 (stereo not shown) [Example 99, N-[1-(2,4-Dichloro-phenyl)-5-(4-ethoxy-phenyl)-4,5-dihydro-1H-pyrazol-3-ylmethyl]-2,5-difluoro-benzenesulfonamide]
	42	17.5	Cc1ccc(C)c(S(=O)(=O)NCC2=NN(c3ccc(Cl)cc3Cl)C(c3ccc(Br)cc3)C2)c1 (stereo not shown) [Example 280, N-[5-(4-Bromo-phenyl)-1-(2,4-dichloro-phenyl)-4,5-dihydro-1H-pyrazol-3-ylmethyl]-2,5-dimethyl-benzenesulfonamide]
	36.7	16.2	Cc1ccc(C)c(S(=O)(=O)NCC2=NN(c3ccc(Cl)cc3Cl)[C@@H](c3ccc(Cl)cc3)C2)c1 [Example 69, (R)-N-[5-(4-Chloro-phenyl)-1-(2,4-dichloro-phenyl)-4,5-dihydro-1H-pyrazol-3-ylmethyl]-2,5-dimethyl-benzenesulfonamide]
	13.4	5.7	CCOc1ccc(C2CC(CNS(=O)(=O)c3c(C)cc(C)cc3C)=NN2c2ccc(Cl)cc2Cl)cc1 (stereo not shown) [Example 272, N-[1-(2,4-Dichloro-phenyl)-5-(4-ethoxy-phenyl)-4,5-dihydro-1H-pyrazol-3-ylmethyl]-2,4,6-trimethyl-benzenesulfonamide]
	55	23.2	O=[N+]([O-])c1cccc(S(=O)(=O)NCC2=NN(c3ccc(Cl)cc3Cl)C(c3ccc(Cl)cc3)C2)c1 (stereo not shown) [Example 144, N-[5-(4-Chloro-phenyl)-1-(2,4-dichloro-phenyl)-4,5-dihydro-1H-pyrazol-3-ylmethyl]-3-nitro-benzenesulfonamide]
	91	40.6	Cc1cc(S(=O)(=O)NCC2=NN(c3ccc(Cl)cc3Cl)[C@@H](c3ccc(Cl)cc3)C2)c(C)cc1Cl [Example 67, (R)-4-Chloro-N-[5-(4-chloro-phenyl)-1-(2,4-dichloro-phenyl)-4,5-dihydro-1H-pyrazol-3-ylmethyl]-2,5-dimethyl-benzenesulfonamide]
	16.5	7	O=S(=O)(NCC1=NN(c2ccc(Cl)cc2Cl)C(c2ccc(Cl)cc2)C1)c1cc(Cl)ccc1Cl (stereo not shown) [Example 139, 2,5-Dichloro-N-[5-(4-chloro-phenyl)-1-(2,4-dichloro-phenyl)-4,5-dihydro-1H-pyrazol-3-ylmethyl]-benzenesulfonamide]
27.2			CCCCS(=O)(=O)NCC1=NN(c2ccc(Cl)cc2Cl)C(c2ccc(Cl)cc2)C1 (stereo not shown) [Example 20, Butane-1-sulfonic acid [5-(4-chloro-phenyl)-1-(2,4-dichloro-phenyl)-4,5-dihydro-1H-pyrazol-3-ylmethyl]-amide]
	43	18.2	Cc1ccc(F)cc1S(=O)(=O)NCC1=NN(c2ccc(Cl)cc2Cl)C(c2ccc(Br)cc2)C1 (stereo not shown) [Example 277, N-[5-(4-Bromo-phenyl)-1-(2,4-dichloro-phenyl)-4,5-dihydro-1H-pyrazol-3-ylmethyl]-5-fluoro-2-methyl-benzenesulfonamide]
